{
  "source": "patent US9260759B2",
  "about": "“Pyrazoloanthrone and derivatives thereof for the treatment of cancers expressing MISRII” (The General Hospital Corporation, priority 2007, dated 2016)",
  "format_in_all_cases": "cell-based",
  "key": {"rat MISRII": {"target": "T1, rat MISRII (Rattus norvegicus, UniProt Q62893)", "T1 construct": "expressed in transfected cells; host or cells: COS7", "T1 sequence (Q62893 18-557)": "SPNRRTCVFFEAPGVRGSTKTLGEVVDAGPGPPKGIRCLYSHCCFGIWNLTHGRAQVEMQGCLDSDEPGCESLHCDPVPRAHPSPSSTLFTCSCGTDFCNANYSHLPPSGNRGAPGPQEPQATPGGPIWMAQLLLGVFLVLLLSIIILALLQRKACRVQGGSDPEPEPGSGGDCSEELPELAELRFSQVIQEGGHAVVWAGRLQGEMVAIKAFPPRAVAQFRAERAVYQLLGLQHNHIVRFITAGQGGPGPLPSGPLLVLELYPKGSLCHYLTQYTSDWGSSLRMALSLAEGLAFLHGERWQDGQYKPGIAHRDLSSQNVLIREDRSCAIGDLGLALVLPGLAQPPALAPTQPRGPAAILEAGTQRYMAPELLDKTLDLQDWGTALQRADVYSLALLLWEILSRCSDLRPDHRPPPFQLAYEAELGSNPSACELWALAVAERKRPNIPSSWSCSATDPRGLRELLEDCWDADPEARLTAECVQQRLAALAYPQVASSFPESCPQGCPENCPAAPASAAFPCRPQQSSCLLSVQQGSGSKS", "assay": "BRE-luciferase reporter assay in COS7 cells transfected with MISRII", "details": "for BRE-luciferase induction, MIS plus SP600125: COS7, 24 h", "source_text": "COS7 cells were transiently transfected with MISRH, BRE-Luciferase and phRL-CMV. […] Control cells were transfected with a control plasmid (EGFP-N1 plasmid) instead of the receptor plasmid to keep the total DNA transfected constant. The results shown are the fold-induction over vehicle treated cells and normalized to phRL-CMV expression to correct for variations in cell number and transfection efficiency. […] The results represent the mean values from three independent experiments performed in triplicates (Error bars represent SEM, *p<0.05, **p<0.001).\nTo identify molecules that interact with the MISRII, we developed a reporter assay where binding to MISRII activates a firefly luciferase reporter driven by the BMP-responsive element (BRE) promoter kindly provided by Dr. Peter ten Dijke (The Netherlands Cancer Institute, The Netherlands) The BMP promoter region on mouse M. mus is located on chromosome 2 (Chr2) and corresponds to RefSeq No: NT—039207.6 93504644-93506272 (SEQ ID NO:1). The BRE-luciferase reporter (Korchynskyi and ten Dijke, 2002, Logeart-Avramoglou, 2006) has multiple optimized BMP response elements (3 SBE, 7 GC, and 4 CAGC) driving the expression of the firefly luciferase. This reporter construct together with a control Renilla luciferase reporter phRL-CMV (Promega, Madison Wis.) and a rat MISRII cDNA expression construct (Teixeira, 1996) were transiently transfected into COST cells and plated in 384 well plates. Primary screens were performed at the Harvard Institute of Chemistry and Cell Biology screening facility. Compounds from chosen libraries were added at a volume of 100 nl at 5 mg/ml concentration in DMSO into 30 μl cell media and cultured for 24 h at 37° C., after which the luciferase activity was measured with reagents from Promega according to the manufacturer's instructions. A hit was identified as causing a fold induction over the plate median and each compound was tested in duplicate in separate plates. MIS was used to control for intra- and inter-assay variability.\nCOS7 cells were plated at a density of 5000 cells/well in 96-well plates for secondary screens. The day after plating cells were transfected with rat MISRII receptor or EGFP-N1 (Clontech, Mountain View Calif.) together with BRE firefly luciferase reporter construct and phRL-CMV using TransIT-LT1 transfection reagent (Mirus Bio Corporation, Madison Wis.). […] Results were obtained using the Dual Luciferase reporter assay according to the manufacturer's instructions (Promega). Plates were read in a Wallac Victor2 luminometer (PerkinElmer, Wellesley Mass.)."}, "endogenous MISRII": {"target": "T2, endogenous MISRII (Mus musculus, UniProt Q8K592)", "T2 construct": "a mouse ovarian cancer cell line, MOVCAR7, that expresses endogenous MISRII; endogenous in cells; host or cells: MOVCAR7 (mouse ovarian cancer cell line)", "T2 sequence (Q8K592 16-568)": "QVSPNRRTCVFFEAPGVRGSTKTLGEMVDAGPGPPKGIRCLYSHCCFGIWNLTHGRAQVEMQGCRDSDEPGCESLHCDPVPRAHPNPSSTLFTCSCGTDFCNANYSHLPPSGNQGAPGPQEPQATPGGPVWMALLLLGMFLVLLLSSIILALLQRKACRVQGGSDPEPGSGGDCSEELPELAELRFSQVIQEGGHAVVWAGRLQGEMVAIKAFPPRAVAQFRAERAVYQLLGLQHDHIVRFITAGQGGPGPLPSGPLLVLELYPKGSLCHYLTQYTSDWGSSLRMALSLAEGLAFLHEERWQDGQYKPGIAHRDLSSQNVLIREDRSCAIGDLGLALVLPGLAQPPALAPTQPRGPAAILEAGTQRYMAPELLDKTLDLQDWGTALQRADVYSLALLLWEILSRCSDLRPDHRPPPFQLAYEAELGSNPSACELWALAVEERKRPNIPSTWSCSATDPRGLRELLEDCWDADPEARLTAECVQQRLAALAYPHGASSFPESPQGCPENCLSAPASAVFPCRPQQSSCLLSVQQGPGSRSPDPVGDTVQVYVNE", "assay": "BRE-luciferase reporter assay in MOVCAR7 cells expressing endogenous MISRII"}, "cancer cells": {"system": "cancer cells", "assay": "Apoptosis of cancer cells", "details": "2-5 μM as compared with 10-20 μM", "source_text": "Paclitaxel has been used in the treatment of a wide range of tumors, including ovarian, breast, and prostate. It exerts its effect by targeting the microtubules and arresting the cells in G2/M phase, leading to the induction of apoptosis (Bhalla et al, 2003, Oncogene 22:9075-908645). […] Additionally, paclitaxel is thought to exert a biphasic apoptosis effect through a p53-dependent pathway that induces apoptosis at lower concentrations, whereas at higher concentrations, it inhibits p53 expression in an […] carcinoma cell line (Tan et al., 2002; Int J Cancer 97:168-172)."}, "[1]": {"details": "5 uM SP600125 with 0.5 ug/ml MIS"}},
  "data": [
    {"compound": "O=C1c2ccccc2-c2n[nH]c3cccc1c23", "note": "[SP600125, anthra[1,9-cd]pyrazol-6(2H)-one]", "values": [
      {"measurement": "additional induction over MIS alone", "setting": "rat MISRII; [1]", "result": "six-fold"},
      {"measurement": "BRE-luciferase induction, MIS plus SP600125", "setting": "rat MISRII; [1]", "result": "approximately 16 fold"},
      {"measurement": "time course of luciferase activity, cotreatment over each treatment alone", "setting": "rat MISRII; 10 uM SP600125 and 0.5 ug/ml MIS, after 6 h through 48 h", "result": "maintain their synergistic effect"},
      {"measurement": "BRE-luciferase induction, MIS plus SP600125", "setting": "rat MISRII; 10 uM SP600125 with 0.5 ug/ml MIS", "result": 22, "unit": "fold"},
      {"measurement": "BRE-luciferase induction, MIS plus SP600125", "setting": "rat MISRII; 25 uM SP600125 with 0.5 ug/ml MIS", "result": 25, "unit": "fold"},
      {"measurement": "interaction of MIS and SP600125 on activation of BRE-luciferase (two-way ANOVA)", "setting": "rat MISRII; combined compared with either alone, COS7", "result": "synergistic effect"},
      {"measurement": "increase in BRE-luciferase activity compared to untreated control", "setting": "endogenous MISRII; 25 μM SP600125, MOVCAR7, 24 h", "result": 5, "unit": "fold"},
      {"measurement": "increase in the BRE-response, combined treatment", "setting": "endogenous MISRII; MIS 5 μg/ml and SP600125 25 μM combined, MOVCAR7, 24 h", "result": 16, "unit": "fold"},
      {"measurement": "apoptosis", "setting": "cancer cells", "result": "did not result in apoptosis"}
    ]}
  ]
}
